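48-hour exposure; five concentrations; linearly interpolated endpoints. GI50 = concentration required for 50% inhibition of growth. TGI marks complete inhibition of growth.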 Where a SMILES comes first, the peptide text is derived from it. [ ]: non-standard residue; d: D form. The star is where a group is joined. Cbz = O=C(OCc1ccccc1)*; Aib = CC(C)(N)C(=O)O; OBn = c1ccc(CO*)cc1
The compounds below were run on MOLT-4 leukemia (assay: inhibition of tumour cell growth, NCI panel, 48 h).
In the case of `C=CC1(C)CC(=O)C2(O)C(C)(O1)C(OC(C)=O)C(O)C1C(C)(C)CCC(O)C12C` (stereo unspecified), the GI50 is reported as > 91.2 µM and the TGI is reported as > 150 µM. `CN1Cc2c(nc(-c3ccccc3)c[n+]2[O-])N(C)C1` was tested, and the TGI was > 100 µM. With `C=C(CN(C)C)C(=O)c1ccc(C(=O)C(=C)CN(C)C)cc1` the TGI was > 100 µM. With `CO/N=C(/C(=O)OC)c1ccccc1COc1ccccc1C(F)(F)F` the TGI was > 100 µM. For `Cc1cc(C)nc(NC(=S)Nc2ccc([N+](=O)[O-])cc2)c1`, the TGI was > 100 µM. With `CCOC(=O)c1c2cccccc-2nc1Nc1cccc2c(C)ccnc12` the TGI was > 10 µM. For `Cc1c2c(c(C)n1-c1ccccc1)C(=O)N(CCN1CCN(c3cccc(C(F)(F)F)c3)CC1)C2=O`, the TGI was > 100 µM. For `O[C@H]1[C@H](O)[C@@H](O)CN2CC[C@H](O)[C@H]12`, the TGI was > 100 µM. With `Clc1sc(Cl)c2c1[C@@H](Cl)C[C@@H]2Br` the TGI was 43.9 µM. `O=C(OCC(Cl)(Cl)Cl)N1CC[C@H](C2CCCCC2)C1` showed a TGI of 50.5 µM. For `CC(NC(=O)C(C)(C)NC(=O)C(CC(=O)OCc1ccccc1)NC(=O)OCc1ccccc1)C(N)=O` (stereo unspecified) (Cbz-Asp(OBn)-[Aib]-Ala-NH2; configuration not given here), the TGI was > 100 µM. For `C=C(C)CNCCN`, the TGI was > 100 µM. In the case of `Cc1ccnc(NC(=S)Nc2ccc([N+](=O)[O-])cc2)c1`, the TGI is reported as > 100 µM. For `O=C(CN1C(=O)CC(c2ccccc2)(c2ccccc2)C1=O)N1CCN(CCO)CC1`, the TGI was > 100 µM. For `CC(C)(CO)CNc1nc(N)nc(Cl)c1/C=N/O`, the TGI was > 100 µM. For `COc1ccc2oc(=N)c(C(=O)Nc3ccccc3)cc2c1`, the TGI was > 100 µM. `O=c1onc2n1-c1cc(Cl)ccc1C(=S)N1CSCC21` (stereo unspecified) was tested, and the TGI was > 100 µM. Work on `COc1cc(C2c3cc4c(cc3[C@@H](Nc3ccccc3)C3COC(=O)[C@H]23)OCO4)cc(OC)c1O` (stereo partly specified) yielded a TGI of 0.13 µM. For `OC(C#CCN1CCCC1)(c1ccccc1)c1ccccc1Cl` (stereo unspecified), the TGI was 91.2 µM. `CCc1n[nH]c(=O)n1-c1ccc2ccccc2c1` was tested, and the TGI was > 100 µM. `CSc1nc2c(c(N(C)C)n1)C(O)n1c(nc3ccccc31)S2` (stereo unspecified) was tested, and the TGI was > 100 µM. In the case of `O=C1NC(O)CCN1C1OC(CO)C(O)C1O` (stereo unspecified), the TGI is reported as > 250 µM. For `O=C1CSC2(CC(/C=C/c3cccs3)=NN2c2cccc(S(=O)(=O)O)c2)N1c1nc2ccccc2s1` (stereo unspecified), the TGI was > 100 µM. `COc1ccc(-c2nc3ccccc3c(=S)n2OC(C)=O)cc1` was tested, and the TGI was > 25 µM. `O=C(c1ccccc1)c1ccc2c(c1)NC(=O)c1ccccc1SSc1ccccc1C(=O)N2` was tested, and the TGI was > 100 µM. `CCCCOCCOC1=C(Cl)C(=O)c2c(O)ccc(O)c2C1=O` was tested, and the TGI was 1.96 µM. For `CC(C)(C)N=C(N)NC#N`, the TGI was > 100 µM. With `CN1CCN(Cc2cc3c(nn2)-c2ccccc2C3=O)CC1` the TGI was > 100 µM. With `O=C(NN1C(=O)CS(=O)(=O)C1c1ccc(C(F)(F)F)cc1)c1ccncc1` (stereo unspecified) the TGI was > 100 µM. `CC1(C)CCc2c(ccc(C(=O)/C=C/c3ccc(O)cc3)c2O)O1` was tested, and the TGI was 69.1 µM. `COc1ccc(CC(N)=O)cc1OC` was tested, and the TGI was > 1250 µM. For `CCOC(=O)CNC(=O)NC12CC3CC(CC(C3)C1)C2`, the TGI was > 550 µM. In the case of `Cc1nc2ccccc2c(-n2cccn2)c1CCn1cccn1`, the TGI is reported as > 100 µM. For `COc1cc2c(cc1OCCCCCN1CCN(c3ncnc4ccccc34)CC1)N=CC1CCCN1C2=O` (stereo unspecified), the GI50 was 0.0194 µM and the TGI was 0.0706 µM. `O=C(NCCCl)O/N=C/c1cccnc1` was tested, and the TGI was > 100 µM. In the case of `C/C1=C\[C@H](C)C[C@H](C)OC(=O)[C@H](C)NC(=O)[C@@H](Cc2ccc(O)c(Br)c2)N(C)C(=O)[C@H](C)NC(=O)[C@@H](C)C1`, the TGI is reported as > 19.5 µM. Compound `CC(C)C1=CC23CCC4C(C)(C(=O)O)CCCC4(C)C2CC1C1C(=O)N(CCCCCCN2C(=O)C4C5CC6C7(C)CCCC(C)(C(=O)O)C7CCC6(C=C5C(C)C)C4C2=O)C(=O)C13` (stereo unspecified) has a TGI of 30.1 µM. In the case of `COC1OC2COC(c3ccccc3)OC2C(O)C1OC(=S)c1ccccc1` (stereo unspecified), the TGI is reported as > 100 µM. For `COc1cc2c(cc1OCCCN1C(=O)c3cccc4cccc(c34)C1=O)N=C[C@@H]1CCCN1C2=O`, the TGI was > 65.4 µM. `COC(=O)c1ccccc1CC1Cc2cccc(C)c2C1=O` (stereo unspecified) gave a TGI of 51.2 µM. `COc1ccc(/C=N/NC(=O)c2ccc(O)c(CN(C)C)c2)cc1` was tested, and the TGI was > 100 µM.

Each compound was assayed on SN12C renal (assay: inhibition of tumour cell growth, NCI panel, 48 h).
In the case of `C=CC1(C)CC(=O)C2(O)C(C)(O1)C(OC(C)=O)C(O)C1C(C)(C)CCC(O)C12C` (stereo unspecified), the GI50 is reported as > 49 µM and the TGI is reported as > 102 µM. `CN1Cc2c(nc(-c3ccccc3)c[n+]2[O-])N(C)C1` was tested, and the TGI was > 100 µM. `C=C(CN(C)C)C(=O)c1ccc(C(=O)C(=C)CN(C)C)cc1` was tested, and the TGI was > 100 µM. In the case of `CO/N=C(/C(=O)OC)c1ccccc1COc1ccccc1C(F)(F)F`, the TGI is reported as > 100 µM. In the case of `COc1cc(Nc2ccc3c(c2)CCC3)nc(OC)n1`, the TGI is reported as > 100 µM. `CCOC(=O)c1c2cccccc-2nc1Nc1cccc2c(C)ccnc12` was tested, and the TGI was > 10 µM. In the case of `Cc1c2c(c(C)n1-c1ccccc1)C(=O)N(CCN1CCN(c3cccc(C(F)(F)F)c3)CC1)C2=O`, the TGI is reported as > 100 µM. With `O[C@H]1[C@H](O)[C@@H](O)CN2CC[C@H](O)[C@H]12` the TGI was > 100 µM. In the case of `Clc1sc(Cl)c2c1[C@@H](Cl)C[C@@H]2Br`, the TGI is reported as > 100 µM. With `O=C(OCC(Cl)(Cl)Cl)N1CC[C@H](C2CCCCC2)C1` the TGI was > 100 µM. In the case of `CC(NC(=O)C(C)(C)NC(=O)C(CC(=O)OCc1ccccc1)NC(=O)OCc1ccccc1)C(N)=O` (stereo unspecified) (Cbz-Asp(OBn)-[Aib]-Ala-NH2; configuration not given here), the TGI is reported as > 100 µM. `c1ccc(C(C(=Nc2ccc(Cc3ccc(N=C(C(c4ccccc4)c4ccccc4)N4CC4)cc3)cc2)N2CC2)c2ccccc2)cc1` showed a TGI of 32.3 µM. `C=C(C)CNCCN` was tested, and the TGI was > 100 µM. `O=C(CN1C(=O)CC(c2ccccc2)(c2ccccc2)C1=O)N1CCN(CCO)CC1` was tested, and the TGI was > 100 µM. With `CC(C)(CO)CNc1nc(N)nc(Cl)c1/C=N/O` the TGI was > 100 µM. In the case of `COc1ccc2oc(=N)c(C(=O)Nc3ccccc3)cc2c1`, the TGI is reported as > 100 µM. Work on `O=C1c2cccc3cccc(c23)C(=O)N1CCCNCCCCNCCCNCCCN1C(=O)c2cccc3cccc(c23)C1=O` yielded a TGI of 1.8 µM. In the case of `O=c1onc2n1-c1cc(Cl)ccc1C(=S)N1CSCC21` (stereo unspecified), the TGI is reported as > 100 µM. `COc1cc(C2c3cc4c(cc3[C@@H](Nc3ccccc3)C3COC(=O)[C@H]23)OCO4)cc(OC)c1O` (stereo partly specified) was tested, and the TGI was 6.03 µM. In the case of `OC(C#CCN1CCCC1)(c1ccccc1)c1ccccc1Cl` (stereo unspecified), the TGI is reported as > 100 µM. `CCc1n[nH]c(=O)n1-c1ccc2ccccc2c1` was tested, and the TGI was > 100 µM. `CSc1nc2c(c(N(C)C)n1)C(O)n1c(nc3ccccc31)S2` (stereo unspecified) was tested, and the TGI was > 100 µM. With `O=C1NC(O)CCN1C1OC(CO)C(O)C1O` (stereo unspecified) the TGI was > 250 µM. With `O=C1CSC2(CC(/C=C/c3cccs3)=NN2c2cccc(S(=O)(=O)O)c2)N1c1nc2ccccc2s1` (stereo unspecified) the TGI was > 100 µM. In the case of `COc1ccc(-c2nc3ccccc3c(=S)n2OC(C)=O)cc1`, the TGI is reported as > 25 µM. `O=C(c1ccccc1)c1ccc2c(c1)NC(=O)c1ccccc1SSc1ccccc1C(=O)N2` was tested, and the TGI was > 100 µM. For `CCCCOCCOC1=C(Cl)C(=O)c2c(O)ccc(O)c2C1=O`, the TGI was 1.59 µM. `CC1=C(C#N)c2nc3ccccc3n2C(=O)C1(C)CCO` (stereo unspecified) was tested, and the TGI was > 100 µM. With `CCN(CC)c1ccc(/C=C/c2ccnc3ccccc23)cc1` the TGI was > 100 µM. For `CC(C)(C)N=C(N)NC#N`, the TGI was > 100 µM. With `O=C(NN1C(=O)CS(=O)(=O)C1c1ccc(C(F)(F)F)cc1)c1ccncc1` (stereo unspecified) the TGI was > 100 µM. For `CC1(C)CCc2c(ccc(C(=O)/C=C/c3ccc(O)cc3)c2O)O1`, the TGI was 20.7 µM. In the case of `COc1ccc(CC(N)=O)cc1OC`, the TGI is reported as > 1250 µM. For `CCOC(=O)CNC(=O)NC12CC3CC(CC(C3)C1)C2`, the TGI was > 550 µM. In the case of `Cc1nc2ccccc2c(-n2cccn2)c1CCn1cccn1`, the TGI is reported as > 100 µM. `COc1cc2c(cc1OCCCCCN1CCN(c3ncnc4ccccc34)CC1)N=CC1CCCN1C2=O` (stereo unspecified) gave a GI50 of 0.03 µM and a TGI of 4.65 µM. In the case of `O=C(NCCCl)O/N=C/c1cccnc1`, the TGI is reported as > 100 µM. In the case of `C/C1=C\[C@H](C)C[C@H](C)OC(=O)[C@H](C)NC(=O)[C@@H](Cc2ccc(O)c(Br)c2)N(C)C(=O)[C@H](C)NC(=O)[C@@H](C)C1`, the TGI is reported as > 25 µM. `CC(C)C1=CC23CCC4C(C)(C(=O)O)CCCC4(C)C2CC1C1C(=O)N(CCCCCCN2C(=O)C4C5CC6C7(C)CCCC(C)(C(=O)O)C7CCC6(C=C5C(C)C)C4C2=O)C(=O)C13` (stereo unspecified) was tested, and the TGI was 32.4 µM. Work on `COC1OC2COC(c3ccccc3)OC2C(O)C1OC(=S)c1ccccc1` (stereo unspecified) yielded a TGI of 48.4 µM. In the case of `COc1cc2c(cc1OCCCN1C(=O)c3cccc4cccc(c34)C1=O)N=C[C@@H]1CCCN1C2=O`, the TGI is reported as > 100 µM. For `COC(=O)c1ccccc1CC1Cc2cccc(C)c2C1=O` (stereo unspecified), the TGI was > 100 µM. For `COc1ccc(/C=N/NC(=O)c2ccc(O)c(CN(C)C)c2)cc1`, the TGI was > 100 µM.

The compounds below were run on MDA-MB-435 (assay: inhibition of tumour cell growth, NCI panel, 48 h).
In the case of `CO/N=C(/C(=O)OC)c1ccccc1COc1ccccc1C(F)(F)F`, the TGI is reported as > 100 µM. For `COc1cc(Nc2ccc3c(c2)CCC3)nc(OC)n1`, the TGI was > 100 µM. `Cc1cc(C)nc(NC(=S)Nc2ccc([N+](=O)[O-])cc2)c1` was tested, and the TGI was > 100 µM. `CCOC(=O)c1c2cccccc-2nc1Nc1cccc2c(C)ccnc12` was tested, and the TGI was > 10 µM. `Cc1c2c(c(C)n1-c1ccccc1)C(=O)N(CCN1CCN(c3cccc(C(F)(F)F)c3)CC1)C2=O` was tested, and the TGI was > 100 µM. For `Clc1sc(Cl)c2c1[C@@H](Cl)C[C@@H]2Br`, the TGI was > 100 µM. For `CC(NC(=O)C(C)(C)NC(=O)C(CC(=O)OCc1ccccc1)NC(=O)OCc1ccccc1)C(N)=O` (stereo unspecified) (Cbz-Asp(OBn)-[Aib]-Ala-NH2; configuration not given here), the TGI was > 100 µM. With `c1ccc(C(C(=Nc2ccc(Cc3ccc(N=C(C(c4ccccc4)c4ccccc4)N4CC4)cc3)cc2)N2CC2)c2ccccc2)cc1` the TGI was 21.1 µM. In the case of `C=C(C)CNCCN`, the TGI is reported as > 100 µM. With `Cc1ccnc(NC(=S)Nc2ccc([N+](=O)[O-])cc2)c1` the TGI was > 100 µM. `O=C(CN1C(=O)CC(c2ccccc2)(c2ccccc2)C1=O)N1CCN(CCO)CC1` was tested, and the TGI was > 100 µM. In the case of `CC(C)(CO)CNc1nc(N)nc(Cl)c1/C=N/O`, the TGI is reported as > 100 µM. With `COc1ccc2oc(=N)c(C(=O)Nc3ccccc3)cc2c1` the TGI was 32.3 µM.

Reference: PubChem BioAssay (NCI)
